Assay results reported in patent US6933296B2, “Compounds effective as β2-adrenoreceptor agonists as well as PDE4-inhibitors” (Altana Pharma B.V., priority 2000, dated 2005).

Legend:
[1] = tested on: PDE4; experiment: Inhibition of PDE4 activity (cytosol from human neutrophils, [3H]cAMP hydrolysis); format: biochemical; conditions: 0.5 μM cAMP, Motapizone 1 μM, DMSO 0.5% for (some of) examples 1-19, 1% from example 20
Experimental: Method for Measuring Inhibition of PDE4 Activity
PDE4 activity was determined as described by Thompson et al. (Adv Cycl Nucl Res 10: 69-92, 1979) with some modifications (Bauer and Schwabe, Naunyn-Schmiedeberg's Arch Pharmacol 311: 193-198, 1980). At a final assay volume of 200 μl (96well microtiter plates) the assay mixture contained 20 mM Tris-HCl (pH 7.4), 5 mM MgCl2, 0.5 μM cAMP, [^3H]cAMP (about 30,000 cpm/assay), the test compound and an aliquot of cytosol from human neutrophils which mainly contains PDE4 activity as described by Schudt et al. (Naunyn-Schmiedeberg's Arch Pharmacol 344: 682-690, 1991); the PDE3-specific inhibitor Motapizone (1 μM) was included to suppress PDE3 activity originating from contaminating platelets.
To minimize problems with the solubility of the compounds, starting from example 20 serial dilutions of the compounds were prepared directly in DMSO and further diluted 1:100 (v/v) in the assays to obtain now the final concentrations of the inhibitors at a DMSO concentration of 1% (v/v) which by itself only slightly affected PDE4 activity.
After preincubation for 5 min at 37° C., the reaction was started by the addition of substrate (cAMP) and the assays were incubated for further 15 min at 37° C. 50 μl of 0.2 N HCl was added to stop the reaction and the assays were left on ice for about 10 min. Following incubation with 25 μg 5′-nucleotidase (Crotalus atrox snake venom) for 10 min at 37° C., the assays were loaded on QAE Sephadex A-25 (1 ml bed volume). The columns were eluted with 2 ml of 30 mM ammonium formiate (pH 6.0) and the eluate was counted for radioactivity. Results were corrected for blank values (measured in the presence of denatured protein) which were below 5% of total radioactivity. […] The IC50-values for the compounds according to the invention for the inhibition of the PDE4 activity were determined from the concentration-inhibition curves by nonlinear-regression.

[2] = tested on: human eosinophils; experiment: Inhibition of C5a-stimulated chemiluminescence in human eosinophils; format: cell-based; conditions: for IC30: Eosinophil, read-out: Inhibition of C5a-stimulated chemiluminescence [-logIC30 (mol/l)] (converted)
Excerpt: c) Inhibition of C5a-stimulated Chemiluminescence in Human Eosinophils
Eosinophils were purified essentially as described in detail elsewhere (Hatzelmann A, Tenor H and Schudt C, Differential effects of non-selective and selective phosphodiesterase inhibitors on human eosinophil functions. Brit J Pharmacol 114: 821-831, 1995). Briefly, total granulocytes were first purified from blood (anticoagulated with 0.3% w/v sodium citrate) by dextran sedimentation, centrifugation on Ficoll Paque and hypotonic lysis of remaining red blood cells. For the further purification of the eosinophil fraction the magnetic cell separation (MACS) system from Miltenyi Biotec (Bergisch-Gladbach, Germany) was applied. Eosinophils were separated from neutrophils by negative selection using anti-CD16 microbeads in a two-step protocol using D- and BS-(formerly called B2-) separation columns. By this method human eosinophils with a purity of >99% and a viability of >97% were obtained.
The chemiluminescence (CL) assay was essentially performed as described (Hatzelmann et al., 1995). Briefly, measurements were performed in a “CL-buffer” (140 mM NaCl, 5 mM KCl, 1 mM MgCl2, 10 mM HEPES, pH 7.4) containing 1 mM CaCl2, 1 mg/ml glucose, 0.05% (w/v) BSA, 10 μM luminol and 4 μM microperoxidase (all values correspond to final concentrations in the assays) in a total volume of 0.5 ml at a cell concentration of 10^6 cells/ml. Aliquots (0.4 ml) of the cell suspension (containing luminol and microperoxidase) were preincubated for 5 min at 37° C. in the absence or presence of inhibitors (0.05 ml). Stock solutions of the inhibitors (10 mM) were prepared in DMSO and diluted 1:100 (v/v) in CL-buffer; subsequent dilutions were made in 1% DMSO/CL-buffer to achieve the final drug concentrations in the assays at a DMSO concentration of 0.1% (v/v) which by itself only weakly affected the CL response. […] After preincubation, the assays were transferred into a “Multi-biolumat LB 9505C” from Berthold (Wildbad, Germany) and stimulated by the addition of 0.05 ml C5a (dissolved in CL-buffer; 100 nM final concentration). CL was continuously recorded for 1 min (C5a) and the AUC (area under the curve) calculated. Inhibition of CL by the compounds under these conditions is given as −log IC30 (mol/l).

[3] = 100 nM C5a, 100 nM salbutamol included as additional cAMP trigger

| Compound | melting point [°C] | Inhibition of PDE4 activity [-logIC50] [1] | IC30 [2, 3] [nM] | effect on the CL response by itself ([2]; 100 nM final concentration, C5a-stimulated) | Inhibition of C5a-stimulated chemiluminescence [-logIC30 (mol/l)] [2, 3] [mol/l] |
| --- | --- | --- | --- | --- | --- |
| COc1ccc(C2=NN(c3ccc(OCCNCC(O)c4cc(Cl)c(N)c(Cl)c4)cc3)C(=O)[C@@H]3CC=CC[C@H]23)cc1OC.O=C(O)C(=O)O (stereo partly drawn) | 136 to 138 | – | – | – | – |
| COc1ccc(C2=NN(C3CCN(CCS(=O)(=O)CCNCC(O)c4cc(Cl)c(N)c(Cl)c4)CC3)C(=O)[C@@H]3CC=CC[C@H]23)cc1OC.O=C(O)/C=C/C(=O)O (stereo partly drawn) | 137 to 138 | – | – | – | – |
| CCOc1ccc(C2=NN(C3CCN(C(=O)CNCC(O)c4cc(Cl)c(N)c(Cl)c4)CC3)C(=O)[C@@H]3CC=CC[C@H]23)cc1OCC.O=C(O)/C=C/C(=O)O (stereo partly drawn) | 172 to 173 | – | – | – | – |
| COc1ccc(C2=NN(C3CCN(C(=O)[C@H](C)NCC(O)c4cc(N)c(N)c(Cl)c4)CC3)C(=O)[C@@H]3CC=CC[C@H]23)cc1OC.O=C(O)/C=C/C(=O)O (stereo partly drawn) | 130 to 131 | – | – | – | – |
| COc1ccc(C2=NN(c3ccc(OCCCCNCC(O)c4ccc(O)c(CO)c4)cc3)C(=O)[C@@H]3CC=CC[C@H]23)cc1OC.O=C(O)/C=C/C(=O)O (stereo partly drawn) | 126 to 127 | – | – | – | – |
| COc1ccc(C2=NN(C3CCN(CCCCCCNCC(O)c4cc(Cl)c(N)c(C#N)c4)CC3)C(=O)[C@@H]3CC=CC[C@H]23)cc1OC.O=C(O)/C=C/C(=O)O (stereo partly drawn) | 142 to 143 | – | – | – | – |
| COc1ccc(C2=NN(CCNCC(O)c3cc(Cl)c(N)c(Cl)c3)C(=O)C3CC=CCC23)c2c1OC1(CCCC1)C2 (stereo not drawn) [Compound 8, (cis)-2-(2-[{2-(4-amino-3,5-dichlorophenyl)-2-hydroxyethyl}amino]-1-ethyl)-4-(2,3-dihydro-7-methoxybenzofuran-2-spiro-1′-cyclopentan-4-yl)-4a,5,8,8a-tetrahydro-2H-phthalazin-1-one] | 176 to 177 | 8.18 | 398 | – | – |
| COc1ccc(C2=NN(c3ccc(OCCCCNCC(O)c4cc(Cl)c(N)c(Cl)c4)cc3)C(=O)[C@@H]3CC=CC[C@H]23)cc1OC.O=C(O)/C=C/C(=O)O (stereo partly drawn) [Compound 21, (4aS,8aR)-2-(4-{4-[2-(4-Amino-3,5-dichlorophenyl)-2-hydroxy-ethylamino]-butoxyl}-phenyl)-4-(3,4-dimethoxy-phenyl)-4a,5,8,8a-tetrahydro-2H-phthalazin-1-one fumarate] | 126 to 127 | 10 | 302 | – | – |
| COc1ccc(C2=NN(Cc3ccc(OCCCCNCC(O)c4cc(Cl)c(N)c(Cl)c4)cc3)C(=O)[C@@H]3CC=CC[C@H]23)cc1OC.O=C(O)/C=C/C(=O)O (stereo partly drawn) [Compound 22, (4aS,8aR)-2-(4-{4-[2-(4-Amino-3,5-dichloro-phenyl)-2-hydroxy-ethylamino]-butoxy}-benzyl)-4-(3,4-dimethoxy-phenyl)-4a,5,8,8a-tetrahydro-2H-phthalazin-1-one fumarate] | 119 to 120 | 9.79 | 200 | – | – |
| COc1ccc(C2=NN(C3CCN(C(=S)NCCCCNCC(O)c4cc(Cl)c(N)c(Cl)c4)CC3)C(=O)[C@@H]3CC=CC[C@H]23)cc1OC (stereo partly drawn) [Compound 25, 4-[(4aS,8aR)-4-(3,4-Dimethoxy-phenyl)-1-oxo-4a,5,8,8a-tetrahydro-1H-phthalazin-2-yl]-piperidine-1-carbothioic acid {4-[2-(4-amino-3,5-dichloro-phenyl)-2-hydroxy-ethylamino]-butyl}-amide] | 139 to 144 | 10.6 | 794 | – | – |
| COc1ccc(C2=NN(C3CCN(S(=O)(=O)CCNCC(O)c4cc(Cl)c(N)c(Cl)c4)CC3)C(=O)[C@@H]3CC=CC[C@H]23)cc1OC.O=C(O)/C=C/C(=O)O (stereo partly drawn) [Compound 27, (4aS,8aR)-2-(1-{2-[2-(4-Amino-3,5-dichloro-phenyl)-2-hydroxy-ethylamino]-ethanesulfonyl}-piperidin-4yl)-4-(3,4-dimethoxy-phenyl)-4a,5,8,8a-tetrahydro-2H-phthalazin-1-one fumarate] | 169 to 171 | 11.2 | 398 | – | – |
| COc1ccc(C2=NN(C3CCN(S(=O)(=O)CCNCC(O)c4ccc(O)c(CO)c4)CC3)C(=O)[C@@H]3CC=CC[C@H]23)cc1OC (stereo partly drawn) [Compound 29, (4aS,8aR)-4-(3,4-Dimethoxy-phenyl)-2-(1-{2-[2-hydroxy-2-(4-hydroxy-3-hydroxymethyl-phenyl)-ethylamino]-ethanesulfonyl}-piperidin-4-yl)-4a,5,8,8a-tetrahydro-2H-phthalazin-1-one] | 97 to 99 | – | – | – | – |
| COc1ccc(C2=NN(C3CCN(C(=O)CCSCCNCC(O)c4cc(Cl)c(N)c(Cl)c4)CC3)C(=O)[C@@H]3CC=CC[C@H]23)cc1OC.Cl (stereo partly drawn) [Compound 30, (4aS,8aR)-2-[1-(3-{2-[2-(4-Amino-3,5-dichloro-phenyl)-2-hydroxy-ethylamino]-ethylsulfanyl}-propanoyl)-piperidin-4-yl]-4-(3,4-dimethoxy-phenyl)-4a,5,8,8a-tetrahydro-2H-phthalazin-1-one hydrochloride] | 118 to 120 | 10.7 | 200 | – | – |
| COc1ccc(C2=NN(C3CCN(C(=O)CCS(=O)(=O)CCNCC(O)c4cc(Cl)c(N)c(C#N)c4)CC3)C(=O)[C@@H]3CC=CC[C@H]23)cc1OC (stereo partly drawn) [Compound 32, 2-Amino-3-chloro-5-{2-[2-(3-{4-[(4aS,8aR)-4-(3,4-dimethoxy-phenyl)-1-oxo-4a,5,8,8a-tetrahydro-1H-phthalazin-2-yl]-piperidin-1-yl}-3-oxo-propane-1-sulfonyl)-ethylamino]-1-hydroxy-ethyl}-benzonitrile] | 102 to 103 | 11.4 | 229 | – | – |
| COc1ccc(C2=NN(C3CCN(C(=O)[C@H](C)NCC(O)c4cc(Cl)c(N)c(C#N)c4)CC3)C(=O)[C@@H]3CC=CC[C@H]23)cc1OC.Cl (stereo partly drawn) [Compound 33, 2-Amino-3-chloro-5-[2-((S)-2-{4-[(4aS,8aR)-4-(3,4-dimethoxy-phenyl)-1-oxo-4a,5,8,8a-tetrahydro-1H-phthalazin-2-yl]-piperidin-1-yl}-1-methyl-2-oxo-ethylamino)-1-hydroxy-ethyl]-benzonitrile hydrochloride] | 160 to 161 | 10.1 | 501 | – | – |
| CC(C)(C)NCC(O)c1ccc(O)c(CO)c1 (stereo not drawn) [salbutamol, reference compound] | – | – | – | hardly affected the CL response | – |
| (cis)-2-{4-(2-[{2-(4-amino-3,5-dichlorophenyl)-2-hydroxyethyl}amino]-1-ethyl}phenyl)-4-(3,4-dimethoxyphenyl)-4a,5,8,8a-tetrahydro-2H-phthalazin-1-one hemifumarate [Compound 5] | – | – | – | – | 6.70 |
